Ends that are not written are not given here.
Key:
Format in all cases: cell-based
[1] = test system: Daudi target cells; test: 51Cr release assay: cytotoxic activity of peptide-activated lymphomononuclear cells against Daudi target cells; conditions: lymphomononuclear cells from three healthy donors, cultured 4 days with 20 micrograms of peptide; Mean ± Standard error
Excerpt: (§1) Generation of cells with cytotoxic activity towards NK sensitive and NK resistant target cells.
(§2) Peripheral blood mononuclear cells from healthy donors were obtained by leukapheresis, processing 5 to 10 liters of whole blood, using a Fenwall CS-3000 continuous-flow cell separator (Fenwall Laboratories, Deerfield, Illinois, USA). Vascular access was obtained with a double lumen central venous catheter.
(§3) Separated lymphomononuclear cells are washed, counted and resuspended at a concentration of 2x10^6 per ml in RPMI-1640 medium containing 10 units of penicillin per ml, 200 µg of gentamycin per ml, 2mM of glutamine per ml and 2,5% of autologous serum in a PL-732 culture bag (Fenwall Laboratories, Deerfield, Illinois, USA).
(§4) The incubation medium contained 20 micrograms of the peptide being studied. • Peptide 1 (Peptide of Example 1). • Peptide 2 (Peptide of Example 2). • Peptide 3 (Peptide of Example 3). • Peptide 4 (Peptide of Example 4). […]. In this pentadecapeptide Proline is absent. This control peptide has in common with the peptides object the invention only aa11=Asp).
(§5) The cells are cultured for 4 days in a moist-air incubator at 37^ºC, 5% CO2 and 21% O2, One ml sample is drawn daily for microbiological studies.
(§6) Changes in the cytotoxic ability of lymphomononuclear cells before and after peptide activation are measured with the ^51Cr release assay, using K562 and Daudi target cells (Table I). Phenotypic changes of lymphomononuclear cells before and after peptide activation are also assessed with fluorescein labeled […] antibodies and automated flow cytometry (Table II). It is well known that lymphomononuclear cells are very heterogeneous, but the presence of surface markers (CD) allows the description of their phenotypes (Weissman IL, Fathman CG, J Exp Med (1973) 137:504; Small M, Herzenberg CA, Weissman IL, Cell Immunol (1975) 15:109).

[2] = test system: K562 target cells; test: 51Cr release assay: cytotoxic activity of peptide-activated lymphomononuclear cells against K562 target cells; conditions: lymphomononuclear cells from three healthy donors, cultured 4 days with 20 micrograms of peptide; Mean ± Standard error
Excerpt: as §1, §2, §3, §4, §5, §6

[3] = test system: lymphomononuclear cells; test: Phenotypes of lymphomononuclear cells after peptide activation (fluorescein labeled antibodies, automated flow cytometry); conditions: 20 micrograms of peptide, 4 days, three healthy donors, Mean ± Standard error
Procedure: as §2, §3
The incubation medium contained 20 micrograms of the peptide being studied. • Peptide 1 (Peptide of Example 1). • Peptide 2 (Peptide of Example 2). • Peptide 3 (Peptide of Example 3). • Peptide 4 (Peptide of Example 4). Control Peptide (Ala-Asp-Ala-Gln-Gln-Asn-Lys-Phe-Asn-Lys-Asp-Gln-Gln-Ser-Val. In this pentadecapeptide Proline is absent. This control peptide has in common with the peptides object the invention only aa11=Asp).
as §5, §6

Row | Compound | CYTOTOXIC ACTIVITY (%) DAUDI [1] [%] | CYTOTOXIC ACTIVITY (%) K562 [2] [%] | CELLS EXPRESSING SURFACE MARKERS (%) CD3 [3] [%] | CELLS EXPRESSING SURFACE MARKERS (%) CD8 [3] [%] | CELLS EXPRESSING SURFACE MARKERS (%) CD11b [3] [%] | CELLS EXPRESSING SURFACE MARKERS (%) CD14 [3] [%] | CELLS EXPRESSING SURFACE MARKERS (%) CD16 [3] [%] | CELLS EXPRESSING SURFACE MARKERS (%) CD56 [3] [%]
1 | CC(C)[C@H](NC(=O)[C@H](CO)NC(=O)[C@H](CCC(N)=O)NC(=O)[C@H](CCC(N)=O)NC(=O)[C@H](CC(=O)O)NC(=O)[C@H](CCCCN)NC(=O)[C@H](CC(N)=O)NC(=O)[C@H](Cc1ccccc1)NC(=O)[C@H](CCCCN)NC(=O)[C@H](CC(N)=O)NC(=O)[C@H](CCC(N)=O)NC(=O)[C@H](CCC(N)=O)NC(=O)[C@H](C)NC(=O)[C@H](CC(=O)O)NC(=O)[C@H](C)N)C(=O)O [Control Peptide, Ala-Asp-Ala-Gln-Gln-Asn-Lys-Phe-Asn-Lys-Asp-Gln-Gln-Ser-Val, reference compound] | 10 ± 4 | 12 ± 8 | – | – | – | – | – | –
2 | CC[C@H](C)[C@H](NC(=O)[C@H](CCC(=O)O)NC(=O)[C@H](CCCCN)NC(=O)[C@H](CO)NC(=O)[C@@H](NC(=O)[C@H](CO)NC(=O)[C@@H]1CCCN1C(=O)[C@H](CC(=O)O)NC(=O)[C@H](CC(=O)O)NC(=O)[C@H](CCCCN)NC(=O)[C@H](CC(C)C)NC(=O)[C@@H](N)CO)C(C)C)C(=O)N[C@@H](CC(C)C)C(=O)N[C@@H](C)C(=O)N[C@H](C(=O)O)C(C)C [Peptide 2] | 62 ± 8 | 62 ± 7 | 58 ± 2 | 18 ± 2 | 24 ± 3 | 18 ± 3 | 22 ± 6 | 17 ± 5
3 | CC[C@H](C)[C@H](NC(=O)[C@H](CCC(=O)O)NC(=O)[C@H](CCCCN)NC(=O)[C@H](CO)NC(=O)[C@@H](NC(=O)[C@H](CO)NC(=O)[C@@H]1CCCN1C(=O)[C@H](CC(=O)O)NC(=O)[C@H](CC(=O)O)NC(=O)[C@H](CCCCN)NC(=O)[C@H](CC(C)C)NC(=O)[C@H](CO)NC(=O)[C@H](CCC(N)=O)NC(=O)[C@@H](NC(=O)[C@H](Cc1ccccc1)NC(=O)CNC(=O)[C@@H](N)CC(N)=O)[C@@H](C)CC)C(C)C)C(=O)N[C@@H](CC(C)C)C(=O)N[C@@H](C)C(=O)N[C@@H](CCC(=O)O)C(=O)N[C@@H](C)C(=O)N[C@@H](CCCCN)C(=O)N[C@H](C(=O)O)C(C)C [Peptide 4] | 56 ± 6 | 58 ± 7 | – | – | – | – | – | –
4 | EILNMPNLNEEQRNV [Peptide 3] | 58 ± 9 | 59 ± 9 | 59 ± 3 | 17 ± 2 | 23 ± 4 | 18 ± 3 | 21 ± 5 | 18 ± 5
5 | NVLGAPKKLNESQAV [Peptide 1] | 68 ± 6 | 63 ± 8 | 60 ± 1 | 17 ± 1 | 23 ± 5 | 17 ± 4 | 22 ± 7 | 18 ± 6

— patent publication EP0532716B1, “NEW […] WITH IMUNOMODULATING ACTIVITY AND PREPARATION THEREOF” (INSTITUTO […] T[…] NAVARRA, S.A., priority 1990, dated 1992)
